From PubChem BioAssay (NCI)
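Tested at 5 concentrations; 48 h exposure; 96-well plates; endpoints linearly interpolated, else capped at highest concentration. GI50 marks 50% less growth. The concentration for full growth arrest is given as TGI.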

Key:
Test in all cases: NCI tumour cell line growth inhibition, 48 h
K-562 leukemia = tested on: K-562 leukemia
EKVX NSCLC = tested on: EKVX NSCLC
OVCAR-8 ovarian = tested on: OVCAR-8 ovarian
SR leukemia = tested on: SR leukemia
OVCAR-4 ovarian = tested on: OVCAR-4 ovarian
U251 CNS = tested on: U251 CNS
UO-31 renal = tested on: UO-31 renal
UACC-257 melanoma = tested on: UACC-257 melanoma
SK-MEL-5 melanoma = tested on: SK-MEL-5 melanoma
CCRF-CEM leukemia = tested on: CCRF-CEM leukemia
T-47D breast = tested on: T-47D breast
NCI-H460 lung = tested on: NCI-H460 lung
COLO 205 colon = tested on: COLO 205 colon
MCF7 breast = tested on: MCF7 breast
DU-145 prostate = tested on: DU-145 prostate
HCT-15 colon = tested on: HCT-15 colon
A549 NSCLC = tested on: A549 NSCLC
SNB-75 CNS = tested on: SNB-75 CNS
RPMI-8226 leukemia = tested on: RPMI-8226 leukemia
NCI-H226 lung = tested on: NCI-H226 lung
SK-OV-3 ovarian = tested on: SK-OV-3 ovarian
786-0 renal = tested on: 786-0 renal
SF-539 CNS = tested on: SF-539 CNS
SNB-19 CNS = tested on: SNB-19 CNS
HT29 colon = tested on: HT29 colon
PC-3 prostate = tested on: PC-3 prostate
NCI/ADR-RES ovarian = tested on: NCI/ADR-RES ovarian
HCT-116 colon = tested on: HCT-116 colon
SF-268 CNS = tested on: SF-268 CNS
OVCAR-3 ovarian = tested on: OVCAR-3 ovarian
ACHN renal = tested on: ACHN renal
SK-MEL-2 melanoma = tested on: SK-MEL-2 melanoma
RXF 393 renal = tested on: RXF 393 renal
HOP-92 NSCLC = tested on: HOP-92 NSCLC
HS 578T breast = tested on: HS 578T breast
SN12C renal = tested on: SN12C renal
MALME-3M melanoma = tested on: MALME-3M melanoma
TK-10 renal = tested on: TK-10 renal
HL-60(TB) leukemia = tested on: HL-60(TB) leukemia
MDA-MB-435 = tested on: MDA-MB-435
SW-620 colon = tested on: SW-620 colon
OVCAR-5 ovarian = tested on: OVCAR-5 ovarian
SK-MEL-28 melanoma = tested on: SK-MEL-28 melanoma
HCC-2998 colon = tested on: HCC-2998 colon
NCI-H522 lung = tested on: NCI-H522 lung
A498 renal = tested on: A498 renal
LOX IMVI melanoma = tested on: LOX IMVI melanoma
KM12 colon = tested on: KM12 colon
NCI-H23 lung = tested on: NCI-H23 lung
MOLT-4 leukemia = tested on: MOLT-4 leukemia
BT-549 breast = tested on: BT-549 breast
IGROV1 ovarian = tested on: IGROV1 ovarian
MDA-MB-231 breast = tested on: MDA-MB-231 breast
CAKI-1 renal = tested on: CAKI-1 renal
HOP-62 NSCLC = tested on: HOP-62 NSCLC
SF-295 CNS = tested on: SF-295 CNS
M14 melanoma = tested on: M14 melanoma

CO[C@@H]1CCN(c2nccc(Nc3cc4c(C(C)C)ccc(N5CC(CS(C)(=O)=O)[C@H]5C)c4cn3)n2)C[C@@H]1F (some centres undefined)
GI50 (K-562 leukemia): 2.9 µM | TGI (K-562 leukemia): > 100 µM | GI50 (EKVX NSCLC): 1.21 µM | TGI (EKVX NSCLC): > 100 µM | GI50 (OVCAR-8 ovarian): 2.83 µM | TGI (OVCAR-8 ovarian): > 100 µM | GI50 (SR leukemia): 2.87 µM | TGI (SR leukemia): 32.7 µM | GI50 (OVCAR-4 ovarian): 2.92 µM | TGI (OVCAR-4 ovarian): 53.1 µM | GI50 (U251 CNS): 4.31 µM | TGI (U251 CNS): > 100 µM | GI50 (UO-31 renal): 1.41 µM | TGI (UO-31 renal): 11.9 µM | GI50 (UACC-257 melanoma): 4.91 µM | TGI (UACC-257 melanoma): 41.1 µM | GI50 (SK-MEL-5 melanoma): 2.22 µM | TGI (SK-MEL-5 melanoma): 5.42 µM | GI50 (CCRF-CEM leukemia): 4.55 µM | TGI (CCRF-CEM leukemia): > 100 µM | GI50 (T-47D breast): 2.47 µM | TGI (T-47D breast): 13.4 µM | GI50 (NCI-H460 lung): 3.51 µM | TGI (NCI-H460 lung): 20.5 µM | GI50 (COLO 205 colon): 4.71 µM | TGI (COLO 205 colon): > 100 µM | GI50 (MCF7 breast): 3.15 µM | TGI (MCF7 breast): 14.8 µM | GI50 (DU-145 prostate): 2.45 µM | TGI (DU-145 prostate): 45.1 µM | GI50 (HCT-15 colon): 2.84 µM | TGI (HCT-15 colon): 14.4 µM | GI50 (A549 NSCLC): 3.06 µM | TGI (A549 NSCLC): > 100 µM | GI50 (SNB-75 CNS): 5.85 µM | TGI (SNB-75 CNS): > 100 µM | GI50 (RPMI-8226 leukemia): 2.14 µM | TGI (RPMI-8226 leukemia): 7.33 µM | GI50 (NCI-H226 lung): 6.17 µM | TGI (NCI-H226 lung): 62.9 µM | GI50 (SK-OV-3 ovarian): 7.42 µM | TGI (SK-OV-3 ovarian): > 100 µM | GI50 (786-0 renal): 7.18 µM | TGI (786-0 renal): > 100 µM | GI50 (SF-539 CNS): 5.05 µM | TGI (SF-539 CNS): 24.3 µM | GI50 (SNB-19 CNS): 5.19 µM | TGI (SNB-19 CNS): > 100 µM | GI50 (HT29 colon): 3.1 µM | TGI (HT29 colon): 12.1 µM | GI50 (PC-3 prostate): 3.52 µM | TGI (PC-3 prostate): > 100 µM | GI50 (NCI/ADR-RES ovarian): 2.81 µM | TGI (NCI/ADR-RES ovarian): 9.74 µM | GI50 (HCT-116 colon): 3.26 µM | TGI (HCT-116 colon): > 100 µM | GI50 (SF-268 CNS): 3.98 µM | TGI (SF-268 CNS): > 100 µM | GI50 (OVCAR-3 ovarian): 3.07 µM | TGI (OVCAR-3 ovarian): > 100 µM | GI50 (ACHN renal): 1.33 µM | TGI (ACHN renal): 44.6 µM | GI50 (SK-MEL-2 melanoma): 4.7 µM | TGI (SK-MEL-2 melanoma): 17.6 µM | GI50 (RXF 393 renal): 2.96 µM | TGI (RXF 393 renal): 7.65 µM | GI50 (HOP-92 NSCLC): 10.6 µM | TGI (HOP-92 NSCLC): > 100 µM | GI50 (HS 578T breast): 4.26 µM | TGI (HS 578T breast): 41.5 µM | GI50 (SN12C renal): 3.35 µM | TGI (SN12C renal): > 100 µM | GI50 (MALME-3M melanoma): 3.76 µM | TGI (MALME-3M melanoma): 15.6 µM | GI50 (TK-10 renal): 0.843 µM | TGI (TK-10 renal): 19.9 µM | GI50 (HL-60(TB) leukemia): 3.06 µM | TGI (HL-60(TB) leukemia): > 100 µM | GI50 (MDA-MB-435): 4.96 µM | TGI (MDA-MB-435): 83.9 µM | GI50 (SW-620 colon): 5.13 µM | TGI (SW-620 colon): > 100 µM | GI50 (OVCAR-5 ovarian): 6.36 µM | TGI (OVCAR-5 ovarian): > 100 µM | GI50 (SK-MEL-28 melanoma): 5.52 µM | TGI (SK-MEL-28 melanoma): > 100 µM | GI50 (HCC-2998 colon): 4.55 µM | TGI (HCC-2998 colon): 36 µM | GI50 (NCI-H522 lung): 1.69 µM | TGI (NCI-H522 lung): 8.25 µM | GI50 (A498 renal): 10.1 µM | TGI (A498 renal): 44.7 µM | GI50 (LOX IMVI melanoma): 4.34 µM | TGI (LOX IMVI melanoma): 16.8 µM | GI50 (KM12 colon): 3.14 µM | TGI (KM12 colon): > 100 µM | GI50 (NCI-H23 lung): 3.7 µM | TGI (NCI-H23 lung): 20.4 µM | GI50 (MOLT-4 leukemia): 2.98 µM | TGI (MOLT-4 leukemia): > 100 µM | GI50 (BT-549 breast): 4.55 µM | TGI (BT-549 breast): 35.4 µM | GI50 (IGROV1 ovarian): 1.03 µM | TGI (IGROV1 ovarian): 7.13 µM | GI50 (MDA-MB-231 breast): 8.77 µM | TGI (MDA-MB-231 breast): > 100 µM | GI50 (CAKI-1 renal): 2.32 µM | TGI (CAKI-1 renal): > 100 µM | GI50 (HOP-62 NSCLC): 4.46 µM | TGI (HOP-62 NSCLC): > 100 µM | GI50 (SF-295 CNS): 3.15 µM | TGI (SF-295 CNS): 10.1 µM | GI50 (M14 melanoma): 5.93 µM | TGI (M14 melanoma): > 100 µM
